In one test the target is T1, Caspase-1 (Homo sapiens, UniProt P29466).
T1 sequence (P29466 whole entry): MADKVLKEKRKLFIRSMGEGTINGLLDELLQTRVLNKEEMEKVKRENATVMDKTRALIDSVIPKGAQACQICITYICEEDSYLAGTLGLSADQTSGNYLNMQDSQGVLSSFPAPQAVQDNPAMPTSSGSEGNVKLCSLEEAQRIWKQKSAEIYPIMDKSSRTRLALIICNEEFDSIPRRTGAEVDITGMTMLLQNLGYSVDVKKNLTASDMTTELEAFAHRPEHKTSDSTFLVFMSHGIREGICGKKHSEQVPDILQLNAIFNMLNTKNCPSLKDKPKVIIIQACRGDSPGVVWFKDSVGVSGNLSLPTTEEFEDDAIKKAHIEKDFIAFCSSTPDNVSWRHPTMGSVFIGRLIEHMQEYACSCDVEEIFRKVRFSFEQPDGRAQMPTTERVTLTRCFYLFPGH
Kind of test: Inhibitory activity against recombinant human Caspase-1.

A further test has as its target T2, Caspase-3 (Homo sapiens, UniProt P42574).
T2 sequence (P42574 whole entry): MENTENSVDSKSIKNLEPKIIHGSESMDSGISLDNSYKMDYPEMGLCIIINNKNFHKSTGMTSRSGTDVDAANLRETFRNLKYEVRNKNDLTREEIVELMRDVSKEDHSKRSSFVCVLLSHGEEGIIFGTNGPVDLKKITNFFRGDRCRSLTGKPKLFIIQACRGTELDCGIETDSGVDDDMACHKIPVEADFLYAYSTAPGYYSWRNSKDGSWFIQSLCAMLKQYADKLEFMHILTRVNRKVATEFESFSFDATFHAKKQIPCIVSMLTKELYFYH
The test can be described thus: Inhibitory activity against recombinant human Caspase-3.

Another test has as its target Caspase-8 (Homo sapiens, UniProt Q14790). The test can be described thus: Inhibitory activity against recombinant human Caspase-8.
The target in a further test is T3, Caspase-7 (Homo sapiens, UniProt P55210).
T3 sequence (P55210 whole entry): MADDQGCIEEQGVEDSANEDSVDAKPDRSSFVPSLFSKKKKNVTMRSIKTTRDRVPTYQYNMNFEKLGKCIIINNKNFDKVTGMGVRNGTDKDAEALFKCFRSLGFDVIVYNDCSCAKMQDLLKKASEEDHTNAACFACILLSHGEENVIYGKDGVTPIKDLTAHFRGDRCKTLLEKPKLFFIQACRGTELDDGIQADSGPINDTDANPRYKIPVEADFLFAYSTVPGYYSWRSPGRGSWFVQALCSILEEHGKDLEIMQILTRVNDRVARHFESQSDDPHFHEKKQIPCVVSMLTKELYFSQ
Kind of test: Inhibitory activity against recombinant human Caspase-7.

Caspase-8, sequence (Q14790 217-374 limits assumed): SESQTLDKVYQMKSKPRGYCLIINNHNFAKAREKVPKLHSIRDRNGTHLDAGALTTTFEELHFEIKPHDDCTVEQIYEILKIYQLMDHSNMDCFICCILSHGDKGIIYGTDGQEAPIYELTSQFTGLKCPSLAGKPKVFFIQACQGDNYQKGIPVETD
Caspase-8, sequence (Q14790 385-479 limits assumed): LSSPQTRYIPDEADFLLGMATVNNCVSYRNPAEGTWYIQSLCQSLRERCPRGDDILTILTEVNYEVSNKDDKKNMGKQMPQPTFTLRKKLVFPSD

On to `COc1ccc(OC)c(CC(=O)N[C@H](C(=O)N[C@@H](CC(=O)O)C(=O)CSCc2ccccc2)C(C)C)c1`, for which the IC50 on Caspase-1 is 7.07 µM; on Caspase-3, 53 nM; at Caspase-8, 7.91 µM.
As for `COc1ccc(C(C)=O)cc1CC(=O)N[C@H](C(=O)N[C@@H](CC(=O)O)C(=O)CSCc1ccccc1)C(C)C`, the IC50 on Caspase-1 worked out at 6.19 µM; on Caspase-3, 13 nM; at Caspase-7 it was 0.555 µM; on Caspase-8, 3.88 µM.
As to `CC(C)[C@H](NC(=O)C(C)(C)O)C(=O)N[C@@H](CC(=O)O)C(=O)CSCc1ccccc1`, the IC50 on Caspase-1 turned out to be 18.4 µM; on Caspase-3, 467 nM; at Caspase-7 it was 10.9 µM; on Caspase-8 it was 13.8 µM.
As to `CCC[C@@H](C(=O)N[C@H](C(=O)N[C@@H](CC(=O)O)C(=O)CSCc1ccccc1)C(C)C)c1cc(Br)ccc1OC`, the 50% inhibitory concentration (IC50) on Caspase-1 was greater than 10 µM.
For `CC(C)[C@H](O)C(=O)N[C@H](C(=O)N[C@@H](CC(=O)O)C(=O)CSCc1ccccc1)C(C)C`, the half-inhibitory concentration (IC50) worked out at 3.01 µM on Caspase-1, 118 nM on Caspase-3, 3.4 µM at Caspase-7 and 7.34 µM at Caspase-8.
`COc1ccc(Br)cc1[C@H](C(=O)N[C@H](C(=O)N[C@@H](CC(=O)O)C(=O)CSCc1ccccc1)C(C)C)C(C)C`: the IC50 on Caspase-1 and at Caspase-7 was greater than 10 µM each time.
`COc1ccc(Br)cc1[C@@H](C)C(=O)N[C@H](C(=O)N[C@@H](CC(=O)O)C(=O)CSCc1ccccc1)C(C)C`: the 50% inhibitory concentration (IC50) at Caspase-1 was greater than 10 µM.
On to `CC(C)[C@H](NC(=O)C(O)(C(F)(F)F)C(F)(F)F)C(=O)N[C@@H](CC(=O)O)C(=O)CSCc1ccccc1`, for which the IC50 on Caspase-1 was greater than 10 µM; at Caspase-3 it was 146 nM; at Caspase-7 it was greater than 10 µM; on Caspase-8, greater than 10 µM.
Regarding `CC(C)[C@H](NC(=O)C(O)(c1ccccc1)c1ccccc1)C(=O)N[C@@H](CC(=O)O)C(=O)CSCc1ccccc1`, the 50% inhibitory concentration (IC50) is greater than 10 µM on Caspase-1, 1300 nM at Caspase-3, greater than 10 µM on Caspase-7 and greater than 10 µM on Caspase-8.
`CC(C)[C@H](NC(=O)C(C)(O)c1ccccc1)C(=O)N[C@@H](CC(=O)O)C(=O)CSCc1ccccc1` (stereo not given in full): the IC50 on Caspase-1 is 18.9 µM; on Caspase-3, 85 nM; on Caspase-7, 2.76 µM; on Caspase-8 it was 8 µM.
As to `CCC(O)(CC)C(=O)N[C@H](C(=O)N[C@@H](CC(=O)O)C(=O)CSCc1ccccc1)C(C)C`, the IC50 on Caspase-1 was greater than 10 µM; at Caspase-3, 2020 nM; on Caspase-7 it was greater than 10 µM; on Caspase-8 it was 9.58 µM.
With `CC(C)[C@H](NC(=O)[C@H](O)c1ccccc1)C(=O)N[C@@H](CC(=O)O)C(=O)CSCc1ccccc1`, the IC50 at Caspase-1 came out at 4.16 µM; on Caspase-3 it was 41 nM; at Caspase-7 it was 1.05 µM; on Caspase-8, 1.15 µM.
`CC(C)[C@H](NC(=O)Cc1ccccc1)C(=O)N[C@@H](CC(=O)O)C(=O)CSCc1ccccc1`: the IC50 worked out at 21.2 µM at Caspase-1 and 22.1 µM at Caspase-8.
With `CC(C)[C@H](NC(=O)C1(O)CC1)C(=O)N[C@@H](CC(=O)O)C(=O)CSCc1ccccc1`, the concentration for half-maximal inhibition (IC50) at Caspase-1 came to 9.59 µM; on Caspase-3 it was 160 nM; at Caspase-7 it was 5.09 µM; at Caspase-8, 12.3 µM.
As for `CO[C@H](C(=O)N[C@H](C(=O)N[C@@H](CC(=O)O)C(=O)CSCc1ccccc1)C(C)C)c1ccccc1`, the IC50 on Caspase-1 was greater than 10 µM; at Caspase-3, 425 nM; at Caspase-7, greater than 10 µM; at Caspase-8 it was 9.17 µM.
Consider `COc1ccc(-c2nc(C)no2)cc1CC(=O)N[C@H](C(=O)N[C@@H](CC(=O)O)C(=O)CSCc1ccccc1)C(C)C`, for which the IC50 came out at 5.45 µM on Caspase-1, 9 nM on Caspase-3, 0.097 µM at Caspase-7 and 3.29 µM on Caspase-8.
Taken in the same sequence, the figures for `CC(C)[C@H](NC(=O)[C@H](O)C(C)C)C(=O)N[C@@H](CC(=O)O)C(=O)CSCc1ccccc1` were greater than 10 µM, 330 nM, greater than 10 µM and 7.27 µM.
Taken in the same sequence, the figures for `COc1ccc(Br)cc1[C@H](C(=O)N[C@H](C(=O)N[C@@H](CC(=O)O)C(=O)CSCc1ccccc1)C(C)C)C1CC1` were greater than 10 µM, 323 nM, greater than 10 µM and greater than 10 µM.
`CC(C)[C@H](NC(=O)C(O)c1ccccc1)C(=O)N[C@@H](CC(=O)O)C(=O)CSCc1ccccc1` (single isomer, unassigned): the IC50 is 4.06 µM at Caspase-1, 100 nM at Caspase-3, 10.9 µM on Caspase-7 and 3.65 µM on Caspase-8.
The matching figures for `COc1ccc(Br)cc1CC(=O)N[C@H](C(=O)N[C@@H](CC(=O)O)C(=O)CSCc1ccccc1)C(C)C` (stereo in doubt; 6): 3.04 µM, 18 nM, 0.284 µM and 1.89 µM.
The matching figures for `C#CC[C@@H](C(=O)N[C@H](C(=O)N[C@@H](CC(=O)O)C(=O)CSCc1ccccc1)C(C)C)c1cc(Br)ccc1OC` (stereo in doubt; 13): greater than 10 µM, 341 nM, 3.62 µM and 4.47 µM.
The matching figures for `C#CC[C@@H](C(=O)N[C@H](C(=O)N[C@@H](CC(=O)O)C(=O)CSCc1ccccc1)C(C)C)c1cc(Br)ccc1OC` (stereo in doubt; 14): 1.03 µM, 17 nM, 0.139 µM and 0.092 µM.
For `COc1ccc(Br)cc1CC(=O)N[C@H](C(=O)N[C@@H](CC(=O)O)C(=O)CSCc1ccccc1)C(C)C` (stereo in doubt; 29), the IC50 came out at 18 nM at Caspase-3, 0.285 µM on Caspase-7 and 1.89 µM on Caspase-8.

Source of the values: ChEMBL document CHEMBL1142798, “Lipophilic versus hydrogen-bonding effect in P3 on potency and selectivity of valine aspartyl ketones as caspase 3 inhibitors” (Bioorg Med Chem Lett, 2005).
